ChEMBL document CHEMBL3044562, “Survival and developmental impairment induced by the trypsin inhibitor bis-benzamidine in the velvetbean caterpillar (Anticarsia gemmatalis)” (Crop Prot, 2011)
Activity calls are given as the source filed them.

Assays:
Format in all cases: functional, organism-based
[1] = tested on: Anticarsia gemmatalis; test: Insecticidal activity against Anticarsia gemmatalis (velvetbean caterpillar) assessed as reduction in survival time at over 150 ppm
[2] = tested on: Anticarsia gemmatalis; test: Insecticidal activity against Anticarsia gemmatalis (velvetbean caterpillar) assessed as reduction in survival time at > 100 ppm
[3] = tested on: Anticarsia gemmatalis; test: Insecticidal activity against Anticarsia gemmatalis (velvetbean caterpillar) assessed as specific amidolytic and esterolytic activity in midgut at 9.5 ppm
[4] = tested on: Anticarsia gemmatalis; test: Insecticidal activity against Anticarsia gemmatalis (velvetbean caterpillar) assessed as sharp decline in proteolytic activity in midgut using L-BApNA and L-TAME at 9.5 ppm
[5] = tested on: Anticarsia gemmatalis; test: Increase in protein digestibility in Anticarsia gemmatalis (velvetbean caterpillar) assessed as double the consumption at 76 ppm
[6] = tested on: Anticarsia gemmatalis; test: Effect on diet consumption in Anticarsia gemmatalis (velvetbean caterpillar) assessed as double the consumption at 76 ppm relative to control
[7] = tested on: Anticarsia gemmatalis; test: Insecticidal activity against Anticarsia gemmatalis (velvetbean caterpillar) assessed as decrease in pupa weight upto 80 ppm
[8] = tested on: Anticarsia gemmatalis; test: Insecticidal activity against Anticarsia gemmatalis (velvetbean caterpillar) assessed as prolongation of larval development upto 76 ppm
[9] = tested on: Anticarsia gemmatalis; test: Insecticidal activity against Anticarsia gemmatalis (velvetbean caterpillar) assessed as reduction in survival at > 76 ppm for more than 15 days

N=C(N)c1ccc(/N=N/Nc2ccc(C(=N)N)cc2)cc1
active: inhibition [1] | inhibition [2] | inhibition [3] | inhibition [4] | Activity [5] | Activity [6] | inhibition [7] | Activity [8] | inhibition [9]
